Consider 39 compounds from patent US11865176B2, “Compositions and methods of modulating anti-tumor immunity” (Dana-Farber Cancer Institute, Inc., priority 2016, dated 2024).

SMILES strings stand for the structures. Where “and” joins values, the source holds several entries; their conditions need not be identical. Equal entries are not always repeated.

This assay has as its system PD-1-overexpressing Jurkat cells. The assay is described as follows: Small molecule screen: IL2 secretion (AlphaLISA) from stimulated PD-1-overexpressing Jurkat cells. The following applies: 3.3 μM compound; for Zscore_1 / Zscore_2: IL2 level, α-CD3/α-CD28/α-PD-1 beads; for Zscore_1: replicate 1; for Zscore_2: replicate 2; for Zscore_AVG: average of replicate Z scores. The assay is classed as cell-based, human. Here is the method:
PD-1-overexpressing Jurkat cells were plated at a concentration of 100,000 cells/well in a total volume of 80 μl. […] Dynabeads conjugated to α-CD3, α-CD28, and α-PD-1 antibodies were added in 20 for a final assay volume of 100 with a final compound concentration of 3.3 μM and an 8:1 bead:cell ratio. Beads were conjugated to α-CD3/α-CD28/control IgG and added to wells containing DMSO-treated cells as a positive control, while beads conjugated to α-CD3/α-CD28/α-PD1 were added to wells containing DMSO-treated cells as a negative control. Supernatants from each well were analyzed for IL2 levels by AlphaLISA (Perkin Elmers) according to the manufacturer's protocol. Average and standard deviation values were calculated from the PD-1 controls (DMSO-treated cells stimulated with α-CD3/α-CD28/α-PD-1 beads); hits were defined as compounds scoring at least 3 standard deviations from the mean of the controls.
In addition to known negative regulators of IL-2 production (e.g. glycogen synthase kinase-3α/β (GSK3α/β) (24,25)), this screen identified cyclin-dependent kinases 4 and 6 inhibitors (CDK4/6i) as top hits (Table 1).
(Alpha assays give light when donor and acceptor beads are brought close together.)

For the compound `CC[C@H](CO)Nc1nc(NCc2ccc(-c3ccccn3)cc2)c2ncn(C(C)C)c2n1` (single isomer, unassigned) [CR8, (R)-Isomer], the Zscore_1 is reported as −9.662, the Zscore_2 is recorded as −6.961 and the Zscore_AVG is on record as −8.311.
For `CC[C@@H](CO)Nc1nc(NCc2ccc(-c3ccccn3)cc2)c2ncn(C(C)C)c2n1` (single isomer, unassigned) [CR8, (S)-Isomer], in that order: −10.2, −10.59 and −10.39.
Take `CC[C@@H](CO)Nc1nc(NCc2ccccc2)c2ncn(C(C)C)c2n1` (single isomer, unassigned) [Roscovitine, (S)-Isomer]: the Zscore_1 is listed as −2.928, the Zscore_2 is −1.279 and the Zscore_AVG is recorded as −2.103.
Consider `O=C1Cc2c([nH]c3ccc(Br)cc23)-c2ncccc2N1` [1-Azakenpaullone], for which the Zscore_1 is 0.418, the Zscore_2 was found to be 1.913 and the Zscore_AVG worked out at 1.165.
For `Cc1ncc2ccccc2c1C#N` [4-Cyano-3-methylisoquinoline], in that order: −0.7566, 0.1385 and −0.3091.
`Nc1ncnc2c1c(I)cn2[C@@H]1O[C@H](CO)[C@@H](O)[C@H]1O` [5-Iodotubercidin]: the Zscore_1 is listed as −4.799, the Zscore_2 is reported as −6.213 and the Zscore_AVG is −5.506.
The like results for `N#CC(C#N)=C(N)/C(C#N)=C/c1ccc(O)cc1` [AG 112] were, in that order, −1.54, −3.816 and −2.678.
For `N#C/C(=C/c1ccc(O)c(O)c1)C(=O)NCc1ccccc1` [AG 490], in that order: −2.645, 0.2008 and −1.222.
The like results for `CC(C)(C)c1cc(C=C(C#N)C#N)cc(Br)c1O` [AG 1024] were, in that order, 0.3395, 0.506 and 0.4228.
For the compound `Cc1cc2ncc(-c3ccccc3)nc2cc1C` [AG 1295], the Zscore_1 is recorded as −0.2372, the Zscore_2 is given as −3.097 and the Zscore_AVG is listed as −1.667.
The like results for `COc1cc2ncc(-c3ccccc3)nc2cc1OC` [AG 1296] were, in that order, 0.5275, −0.8562 and −0.1643.
For `COc1cc2ncnc(Nc3cccc(Cl)c3)c2cc1OC` [AG 1478], in that order: −1.129, −1.216 and −1.173.
The like results for `Cc1nc2cc3nc(-c4cccs4)cnc3cc2n1C` [AGL 2043] were, in that order, −0.2488, 1.253 and 0.5019.
For `c1cc(-c2cnn3cc(-c4ccc(OCCN5CCCCC5)cc4)cnc23)ccn1` [AMPK Inhibitor, Compound C], the Zscore_1 was −2.877, the Zscore_2 turned out to be 1.296 and the Zscore_AVG is −0.7902.
Consider `O=c1cc(-c2cccc3c2Sc2ccccc2S3)oc(N2CCOCC2)c1` [ATM Kinase Inhibitor], for which the Zscore_1 was determined as 1.379, the Zscore_2 is reported as 4.382 and the Zscore_AVG is reported as 2.881.
The like results for `O=C(NC(NC(=S)Nc1ccc(F)c([N+](=O)[O-])c1)C(Cl)(Cl)Cl)C(c1ccccc1)c1ccccc1` (stereo not drawn) [ATM/ATR Kinase Inhibitor] were, in that order, −1.798, −1.073 and −1.436.
For the compound `Cl.Cl.Nc1ncnc2nc(-c3ccc(N4CCOCC4)nc3)cc(-c3cccc(Br)c3)c12` [Adenosine Kinase Inhibitor], the Zscore_1 was determined as 0.3983, the Zscore_2 turned out to be 0.5922 and the Zscore_AVG came out at 0.4953.
In the case of `CC[n+]1c(/C=C/N(C)c2ccccc2)n(-c2ccccc2)c2ccc(-c3nc4ccccc4s3)cc21.[I-]` [Akt Inhibitor IV], the Zscore_1 is −5.269, the Zscore_2 is listed as −6.844 and the Zscore_AVG was −6.057.
For `O=c1[nH]c2ccccc2n1C1CCN(Cc2ccc(-c3nc4cc5nc[nH]c5cc4nc3-c3ccccc3)cc2)CC1` [Akt Inhibitor VIII, Isozyme- Selective, Akti-1/2], in that order: 1.673, 1.052 and 1.362.
For `CCN(CC)CCCCN1c2ccccc2Oc2ccc(Cl)cc21` [Akt Inhibitor X], the Zscore_1 is listed as 2.25, the Zscore_2 is recorded as 6.382 and the Zscore_AVG worked out at 4.316.
The like results for `CCCCc1c(-c2ccc(O)cc2)[nH]c2nccnc12` [Aloisine A, RP107] were, in that order, −3.301, −1.322 and −2.311.
For `CCCCc1c(-c2ccc(OC)cc2)[nH]c2nccnc12` [Aloisine, RP106], in that order: −0.8722, −4.242 and −2.557.
The like results for `N#CCCc1ccc2c(c1)-c1[nH]c3ccc([N+](=O)[O-])cc3c1CC(=O)N2` [Alsterpaullone, 2-Cyanoethyl] were, in that order, −5.269, −7.447 and −6.358.
For the compound `O=C1Cc2c([nH]c3ccc([N+](=O)[O-])cc23)-c2ccccc2N1` [Alsterpaullone], the Zscore_1 is recorded as −0.7783, the Zscore_2 was −3.341 and the Zscore_AVG is given as −2.06.
For the compound `CC(C)[C@H](CO)Nc1nc(Nc2cc(N)cc(Cl)c2)c2ncn(C(C)C)c2n1` [Aminopurvalanol A], the Zscore_1 was −3.687, the Zscore_2 was −3.638 and the Zscore_AVG is given as −3.662.
The like results for `O=C1NC(=O)c2c1c1c3ccccc3[nH]c1c1[nH]c3ccccc3c21` [Arcyriaflavin A, Synthetic] were, in that order, 3.889, 5.674 and 4.782.
With `O=C(Nc1cccc(Nc2nccc(Nc3cccc(C(F)(F)F)c3)n2)c1)C1CC1` [Aurora Kinase Inhibitor III], the Zscore_1 is 7.108 and 2.737; the Zscore_2 was 6.482 and −0.8139; the Zscore_AVG is 6.795 and 0.9614.
For the compound `COc1cc2ncnc(Nc3ccc(NC(=O)c4ccccc4)cc3)c2cc1OC` [Aurora Kinase Inhibitor II], the Zscore_1 was −0.6024, the Zscore_2 was 2.958 and the Zscore_AVG is 1.178.
For `Nc1nc(Nc2ccc(S(N)(=O)=O)cc2)nn1C(=O)c1c(F)cccc1F` [Aurora Kinase/Cdk Inhibitor], the Zscore_1 is given as −1.131, the Zscore_2 is −3.054 and the Zscore_AVG was −2.093.
For `Cc1ccc(S(=O)(=O)/C=C/C#N)cc1` [BAY 11-7082], in that order: −3.877, −4.461 and −4.169.
For `Cn1cnc2cc3c(Nc4cccc(Br)c4)ncnc3cc21` [BPIQ-I], in that order: 0.6533, 1.97 and 1.312.
Regarding `NC(=O)c1cccc(-c2cc(Nc3ccc(OC(F)(F)F)cc3)ncn2)c1` [Bcr-abl Inhibitor], the Zscore_1 was determined as 1.402, the Zscore_2 is 5.274 and the Zscore_AVG stood at 3.338.
For `Cl.NCCCn1cc(C2=C(c3c[nH]c4ccccc34)C(=O)NC2=O)c2ccccc21` [Bisindolylmaleimide III, Hydrochloride], in that order: −3.661, −5.093 and −4.377.
As for `O=C1NC(=O)C(c2c[nH]c3ccccc23)=C1c1c[nH]c2ccccc12` [Bisindolylmaleimide IV], the Zscore_1 is reported as −2.073, the Zscore_2 is listed as −2.336 and the Zscore_AVG is −2.205.
The like results for `CN(C)CCCn1cc(C2=C(c3c[nH]c4ccccc34)C(=O)NC2=O)c2ccccc21` [Bisindolylmaleimide I] were, in that order, −9.431, −8.32 and −8.875.
For `CN1C(=O)C(c2c[nH]c3ccccc23)=C(c2c[nH]c3ccccc23)C1=O` [Bisindolylmaleimide V], in that order: −0.6214, 1.109 and 0.2438.
The like results for `NC(=O)c1ccc(-c2nc(-c3ccc4c(c3)OCCO4)c(-c3ccccn3)[nH]2)cc1` [Casein Kinase I Inhibitor, D4476] were, in that order, −1.219, 1.296 and 0.03862.
As to `O=C(O)C=Cc1cc(Br)c(Br)c(Br)c1Br` [Casein Kinase II Inhibitor III, TBCA], the Zscore_1 came out at 1.017, the Zscore_2 is on record as 1.548 and the Zscore_AVG was found to be 1.282.
As for `Brc1c(Br)c(Br)c2n[nH]nc2c1Br` [Casein Kinase II Inhibitor I], the Zscore_1 is 0.6337, the Zscore_2 was found to be 0.5348 and the Zscore_AVG is on record as 0.5842.
